Molecules are shown by their SMILES. ≈ marks a conversion by molar mass, not a printed value.

The values below come from patent US8349828B2, “Azatricyclic antibiotic compounds” (Actelion Pharmaceuticals Ltd., priority 2008, dated 2013).

One assay has as its system M. catarrhalis A894. Briefly: MIC determination by microdilution in cation-adjusted Mueller-Hinton Broth (CLSI M7-A7). In kind it is cell-based. To be noted: Moraxella catarrhalis, A894, microdilution method. On the procedure:
Minimal inhibitory concentrations (MICs, in mg/l) were determined in cation-adjusted Mueller-Hinton Broth by a microdilution method following the description given in “Methods for Dilution Antimicrobial Susceptibility Tests for Bacteria that Grow Aerobically”, Approved standard, 7th ed., Clinical and Laboratory Standards Institute (CLSI) Document M7-A7, Wayne, Pa., USA, 2006. All Example compounds were tested against several Gram-positive and Gram-negative bacteria.
In general terms: Broth dilution looks for growth in wells or tubes with falling amounts of substance.
Consider `O=C1COc2ccc(N3C[C@@H](CNC[C@@H]4Cc5c(F)ccc6ccc(=O)n4c56)OC3=O)cc2N1` [Example 16, (S)-9-fluoro-2-({[(R)-2-oxo-3-(3-oxo-3,4-dihydro-2H-benzo[1,4]oxazin-6-yl)-oxazolidin-5-ylmethyl]-amino}-methyl)-1,2-dihydro-pyrrolo[3,2,1-ij]quinolin-4-one], for which it took 0.125 µg/mL (≈ 0.269 µM) to inhibit growth (MIC).
The same measure, in the same setting: under `O=C1CSc2ccc(N3C[C@@H](CCNC[C@H]4Cc5c(F)ccc6ccc(=O)n4c56)OC3=O)cc2N1` [Example 18, (R)-9-fluoro-2-({2-[(R)-2-oxo-3-(3-oxo-3,4-dihydro-2H-benzo[1,4]thiazin-6-yl)-oxazolidin-5-yl]-ethylamino}-methyl)-1,2-dihydropyrrolo[3,2,1-ij]quinolin-4-one] stands no more than 0.063 µg/mL.
Same read-out and setting: under `O=C1CSc2ccc(N3C[C@H](CCNC[C@@H]4Cc5c(F)ccc6ccc(=O)n4c56)OC3=O)cc2N1` [Example 19, (S)-9-fluoro-2-({2-[(S)-2-oxo-3-(3-oxo-3,4-dihydro-2H-benzo[1,4]thiazin-6-yl)-oxazolidin-5-yl]-ethylamino}-methyl)-1,2-dihydropyrrolo[3,2,1-ij]quinolin-4-one] stands no more than 0.063 µg/mL; under `O=C1CSc2ccc(N3C[C@H](CCNC[C@H]4Cc5c(F)ccc6ccc(=O)n4c56)OC3=O)cc2N1` [Example 20, (R)-9-fluoro-2-({2-[(S)-2-oxo-3-(3-oxo-3,4-dihydro-2H-benzo[1,4]thiazin-6-yl)-oxazolidin-5-yl]-ethylamino}-methyl)-1,2-dihydropyrrolo[3,2,1-ij]quinolin-4-one], no more than 0.063 µg/mL.
On the same count and under the same terms, under `O=C1CSc2ccc(N3C[C@H](CCNC[C@@H]4Cc5cccc6ncc(=O)n4c56)OC3=O)cc2N1` [Example 29, (S)-5-({2-[(S)-2-oxo-3-(3-oxo-3,4-dihydro-2H-benzo[1,4]thiazin-6-yl)-oxazolidin-5-yl]-ethylamino}-methyl)-5,6-dihydro-pyrrolo[1,2,3-de]quinoxalin-3-one] stands no more than 0.063 µg/mL; under `O=C1CSc2ccc(N3C[C@@H](CNC[C@@H]4Cc5cccc6ncc(=O)n4c56)OC3=O)cc2N1` [Example 30, (S)-5-({[(R)-2-oxo-3-(3-oxo-3,4-dihydro-2H-benzo[1,4]thiazin-6-yl)oxazolidin-5-ylmethyl]-amino}-methyl)-5,6-dihydro-pyrrolo[1,2,3-de]quinoxalin-3-one], 0.125 µg/mL (≈ 0.27 µM).

The same assay, now with this note: microdilution method.
On to `O=C1CSc2ccc(N3C[C@@H](CCNC[C@@H]4Cc5c(F)ccc6ccc(=O)n4c56)OC3=O)cc2N1` [Example 17, (S)-9-fluoro-2-({2-[(R)-2-oxo-3-(3-oxo-3,4-dihydro-2H-benzo[1,4]thiazin-6-yl)-oxazolidin-5-yl]-ethylamino}-methyl)-1,2-dihydro-1.5 pyrrolo[3,2,1-ij]quinolin-4-one], for which the “MIC M. catarrhalis A894” value was “≦0.063 mg/l”.
